Measurements from the NIST ThermoML archive (doi:10.1021/je900387e).

Test: xn = mol fraction of the nth substance listed
Details: Liquid, Pycnometric method

CCCCBr [1-bromobutane] + O=C=O
Details | mass density [kg/m3]
332.4 K, 10370 kPa, x1 = 0.1495 | 915
332.4 K, 10440 kPa, x1 = 0.0461 | 587
332.4 K, 10440 kPa, x1 = 0.0683 | 677
332.4 K, 10510 kPa, x1 = 0.0989 | 783
332.4 K, 10520 kPa, x1 = 0.0461 | 595
332.4 K, 10560 kPa, x1 = 0.1495 | 918
332.4 K, 10570 kPa, x1 = 0.0683 | 686
332.4 K, 10590 kPa, x1 = 0.0461 | 603
332.4 K, 10650 kPa, x1 = 0.0989 | 788
332.4 K, 10710 kPa, x1 = 0.0683 | 694
332.4 K, 10720 kPa, x1 = 0.0461 | 615
332.4 K, 10750 kPa, x1 = 0.1495 | 921
332.4 K, 10820 kPa, x1 = 0.0989 | 793
332.4 K, 10870 kPa, x1 = 0.0683 | 703
332.4 K, 10880 kPa, x1 = 0.0461 | 627
332.4 K, 10940 kPa, x1 = 0.1495 | 924
332.4 K, 10990 kPa, x1 = 0.0989 | 798
332.4 K, 11050 kPa, x1 = 0.0683 | 712
332.4 K, 11070 kPa, x1 = 0.0461 | 640
332.4 K, 11120 kPa, x1 = 0.1495 | 927
332.4 K, 11180 kPa, x1 = 0.0989 | 804
332.4 K, 11240 kPa, x1 = 0.0683 | 721
332.4 K, 11270 kPa, x1 = 0.0461 | 654
332.4 K, 11310 kPa, x1 = 0.1495 | 930
332.4 K, 11390 kPa, x1 = 0.0989 | 808
332.4 K, 11460 kPa, x1 = 0.0683 | 730
332.4 K, 11510 kPa, x1 = 0.0461 | 668
332.4 K, 11530 kPa, x1 = 0.1495 | 933
332.4 K, 11600 kPa, x1 = 0.0989 | 814
332.4 K, 11720 kPa, x1 = 0.0683 | 739
332.4 K, 11730 kPa, x1 = 0.1495 | 936
332.4 K, 11780 kPa, x1 = 0.0461 | 683
332.4 K, 11830 kPa, x1 = 0.0989 | 819
332.4 K, 11970 kPa, x1 = 0.1495 | 939
332.4 K, 11980 kPa, x1 = 0.0461 | 689
332.4 K, 12000 kPa, x1 = 0.0683 | 749
332.4 K, 12060 kPa, x1 = 0.0989 | 825
332.4 K, 12190 kPa, x1 = 0.1495 | 942
332.4 K, 12220 kPa, x1 = 0.0461 | 703
332.4 K, 12330 kPa, x1 = 0.0461 | 708
332.4 K, 12330 kPa, x1 = 0.0683 | 759
332.4 K, 12330 kPa, x1 = 0.0989 | 830
332.4 K, 12450 kPa, x1 = 0.1495 | 945
332.4 K, 12620 kPa, x1 = 0.0989 | 836
332.4 K, 12650 kPa, x1 = 0.1495 | 948
332.4 K, 12670 kPa, x1 = 0.0683 | 770
332.4 K, 12920 kPa, x1 = 0.1495 | 951
332.4 K, 12930 kPa, x1 = 0.0989 | 842
332.4 K, 13080 kPa, x1 = 0.0683 | 780
332.4 K, 13170 kPa, x1 = 0.1495 | 954
332.4 K, 13250 kPa, x1 = 0.0989 | 847
332.4 K, 13470 kPa, x1 = 0.1495 | 958
332.4 K, 13540 kPa, x1 = 0.0683 | 791
332.4 K, 13600 kPa, x1 = 0.0989 | 853
332.4 K, 13750 kPa, x1 = 0.1495 | 961
332.4 K, 13980 kPa, x1 = 0.0989 | 859
332.4 K, 14040 kPa, x1 = 0.1495 | 964
332.4 K, 14050 kPa, x1 = 0.0683 | 802
332.4 K, 14320 kPa, x1 = 0.1495 | 967
332.4 K, 14360 kPa, x1 = 0.0989 | 865
332.4 K, 14630 kPa, x1 = 0.1495 | 970
332.4 K, 14640 kPa, x1 = 0.0683 | 814
332.4 K, 14810 kPa, x1 = 0.0989 | 871
332.4 K, 14910 kPa, x1 = 0.1495 | 973
332.4 K, 14960 kPa, x1 = 0.0683 | 820
332.4 K, 15090 kPa, x1 = 0.1495 | 975
335.9 K, 10180 kPa, x1 = 0.0683 | 589
335.9 K, 10200 kPa, x1 = 0.0683 | 591
335.9 K, 10210 kPa, x1 = 0.0683 | 593
335.9 K, 10240 kPa, x1 = 0.0683 | 597
335.9 K, 10250 kPa, x1 = 0.0683 | 601
335.9 K, 10310 kPa, x1 = 0.0683 | 607
335.9 K, 10380 kPa, x1 = 0.0683 | 614
335.9 K, 10450 kPa, x1 = 0.0683 | 620
335.9 K, 10540 kPa, x1 = 0.0683 | 627
335.9 K, 10610 kPa, x1 = 0.0683 | 634
335.9 K, 10700 kPa, x1 = 0.0683 | 641
335.9 K, 10790 kPa, x1 = 0.0683 | 649
335.9 K, 10940 kPa, x1 = 0.0683 | 660
335.9 K, 11140 kPa, x1 = 0.0683 | 672
335.9 K, 11350 kPa, x1 = 0.0683 | 684
335.9 K, 11590 kPa, x1 = 0.0683 | 697
335.9 K, 11870 kPa, x1 = 0.0683 | 710
335.9 K, 12340 kPa, x1 = 0.0683 | 728
335.9 K, 12930 kPa, x1 = 0.0683 | 747
335.9 K, 13690 kPa, x1 = 0.0683 | 767
335.9 K, 14350 kPa, x1 = 0.0683 | 783
335.9 K, 14890 kPa, x1 = 0.0683 | 794
335.9 K, 14990 kPa, x1 = 0.0683 | 797
335.9 K, 15110 kPa, x1 = 0.0683 | 800
337.4 K, 10000 kPa, x1 = 0.1495 | 872
337.4 K, 10190 kPa, x1 = 0.1495 | 876
337.4 K, 10210 kPa, x1 = 0.0461 | 479
337.4 K, 10240 kPa, x1 = 0.0989 | 714
337.4 K, 10260 kPa, x1 = 0.0461 | 482
337.4 K, 10290 kPa, x1 = 0.0989 | 717
337.4 K, 10310 kPa, x1 = 0.1495 | 879
337.4 K, 10340 kPa, x1 = 0.0461 | 492
337.4 K, 10360 kPa, x1 = 0.0989 | 722
337.4 K, 10430 kPa, x1 = 0.0461 | 502
337.4 K, 10430 kPa, x1 = 0.1495 | 881
337.4 K, 10440 kPa, x1 = 0.0989 | 726
337.4 K, 10520 kPa, x1 = 0.0989 | 730
337.4 K, 10540 kPa, x1 = 0.0461 | 513
337.4 K, 10580 kPa, x1 = 0.1495 | 884
337.4 K, 10590 kPa, x1 = 0.0989 | 735
337.4 K, 10660 kPa, x1 = 0.0461 | 524
337.4 K, 10690 kPa, x1 = 0.0989 | 739
337.4 K, 10690 kPa, x1 = 0.1495 | 887
337.4 K, 10790 kPa, x1 = 0.0461 | 537
337.4 K, 10790 kPa, x1 = 0.0989 | 743
337.4 K, 10810 kPa, x1 = 0.1495 | 889
337.4 K, 10890 kPa, x1 = 0.0989 | 748
337.4 K, 10910 kPa, x1 = 0.0461 | 549
337.4 K, 10970 kPa, x1 = 0.1495 | 893
337.4 K, 10990 kPa, x1 = 0.0989 | 752
337.4 K, 11060 kPa, x1 = 0.0461 | 563
337.4 K, 11100 kPa, x1 = 0.1495 | 895
337.4 K, 11130 kPa, x1 = 0.0989 | 757
337.4 K, 11230 kPa, x1 = 0.0461 | 577
337.4 K, 11240 kPa, x1 = 0.0989 | 762
337.4 K, 11250 kPa, x1 = 0.1495 | 898
337.4 K, 11370 kPa, x1 = 0.0461 | 588
337.4 K, 11370 kPa, x1 = 0.0989 | 766
337.4 K, 11420 kPa, x1 = 0.1495 | 901
337.4 K, 11510 kPa, x1 = 0.0461 | 599
337.4 K, 11520 kPa, x1 = 0.0989 | 771
337.4 K, 11580 kPa, x1 = 0.1495 | 904
337.4 K, 11680 kPa, x1 = 0.0461 | 611
337.4 K, 11680 kPa, x1 = 0.0989 | 776
337.4 K, 11740 kPa, x1 = 0.1495 | 906
337.4 K, 11830 kPa, x1 = 0.0989 | 781
337.4 K, 11860 kPa, x1 = 0.0461 | 623
337.4 K, 11920 kPa, x1 = 0.1495 | 909
337.4 K, 12010 kPa, x1 = 0.0989 | 786
337.4 K, 12070 kPa, x1 = 0.1495 | 912
337.4 K, 12080 kPa, x1 = 0.0461 | 636
337.4 K, 12200 kPa, x1 = 0.0989 | 791
337.4 K, 12280 kPa, x1 = 0.1495 | 915
337.4 K, 12320 kPa, x1 = 0.0461 | 649
337.4 K, 12390 kPa, x1 = 0.0989 | 796
337.4 K, 12490 kPa, x1 = 0.1495 | 918
337.4 K, 12580 kPa, x1 = 0.0461 | 663
337.4 K, 12620 kPa, x1 = 0.0989 | 801
337.4 K, 12680 kPa, x1 = 0.1495 | 921
337.4 K, 12850 kPa, x1 = 0.0989 | 806
337.4 K, 12890 kPa, x1 = 0.1495 | 924
337.4 K, 12910 kPa, x1 = 0.0461 | 674
337.4 K, 13110 kPa, x1 = 0.0989 | 812
337.4 K, 13130 kPa, x1 = 0.1495 | 927
337.4 K, 13260 kPa, x1 = 0.0461 | 693
337.4 K, 13320 kPa, x1 = 0.1495 | 930
337.4 K, 13360 kPa, x1 = 0.0989 | 817
337.4 K, 13530 kPa, x1 = 0.0461 | 703
337.4 K, 13550 kPa, x1 = 0.1495 | 933
337.4 K, 13650 kPa, x1 = 0.0989 | 822
337.4 K, 13770 kPa, x1 = 0.1495 | 936
337.4 K, 13920 kPa, x1 = 0.0989 | 828
337.4 K, 14020 kPa, x1 = 0.1495 | 939
337.4 K, 14220 kPa, x1 = 0.0989 | 833
337.4 K, 14300 kPa, x1 = 0.1495 | 942
337.4 K, 14530 kPa, x1 = 0.1495 | 945
337.4 K, 14570 kPa, x1 = 0.0989 | 839
337.4 K, 14750 kPa, x1 = 0.1495 | 948
337.4 K, 14880 kPa, x1 = 0.0989 | 844
337.4 K, 15050 kPa, x1 = 0.1495 | 951
337.4 K, 15220 kPa, x1 = 0.0989 | 850
337.9 K, 9120 kPa, x1 = 0.0245 | 280
337.9 K, 9150 kPa, x1 = 0.0245 | 283
337.9 K, 9220 kPa, x1 = 0.0245 | 288
337.9 K, 9290 kPa, x1 = 0.0245 | 292
337.9 K, 9370 kPa, x1 = 0.0245 | 297
337.9 K, 9440 kPa, x1 = 0.0245 | 303
337.9 K, 9520 kPa, x1 = 0.0245 | 308
337.9 K, 9600 kPa, x1 = 0.0245 | 314
337.9 K, 9680 kPa, x1 = 0.0245 | 320
337.9 K, 9750 kPa, x1 = 0.0245 | 325
337.9 K, 9830 kPa, x1 = 0.0245 | 331
337.9 K, 9920 kPa, x1 = 0.0245 | 338
337.9 K, 10000 kPa, x1 = 0.0245 | 345
337.9 K, 10080 kPa, x1 = 0.0245 | 352
337.9 K, 10180 kPa, x1 = 0.0245 | 359
337.9 K, 10270 kPa, x1 = 0.0245 | 367
337.9 K, 10360 kPa, x1 = 0.0245 | 375
337.9 K, 10450 kPa, x1 = 0.0245 | 383
337.9 K, 10560 kPa, x1 = 0.0245 | 391
337.9 K, 10620 kPa, x1 = 0.0245 | 397
337.9 K, 10630 kPa, x1 = 0.0245 | 399
